We go through three compounds from publication PMC10970924 (Life, 2024).

Each structure is given as a SMILES string. Like-named read-outs stand apart in the source and are kept apart here. Where only a bound is given, the exact number is not on record here.

In one data set the test system is PC-3 cells. To be noted: for Olive Moment / Tail Area / Tail DNA % / Tail Intensity / Tail Length / Tail Moment: 3 days; for DNA breaks in the Comet assay (in words): PC-3, 72 h.
The nature of data set [1]: Neutralization of the ABTS radical. To be noted: for EC50: 37 °C, 15 min, 738 nm, read-out: EC50 of half-maximal ABTS radical inhibition; for Trolox Equivalent Antioxidant Capacity (TEAC): ABTS radical neutralization, relative to Trolox. Here is the method:
Initially, an ABTS solution was prepared in water at a concentration of 7 mM. Subsequently, the radical cation ABTS^•+ was generated by mixing the original ABTS solution with 2.45 mM ammonium persulfate at a 1:1 ratio. This mixture was then allowed to stand in the dark at room temperature for 12–16 h before use. The diluted ABTS^•+ solution was prepared in a methanol/water mixture (1:1) reaching an optical density of 0.7 units at 738 nm (~0.7 mM). Next, various concentrations of compounds (ranging from 1000, 500, 250, 125, 62.5, 31.2, 15.6, to 7.8 μM) in a volume of 130 µL in a methanol/water mixture (1:1) were mixed with the ABTS radical cation solution (~0.7 mM) in a volume of 130 µL. The mixture was then incubated at 37 °C in a water bath for 15 min. The optical density was measured at 738 nm using the Infinite M200 PRO (TECAN, Zürich, Switzerland) plate reader. The percentage inhibition of ABTS absorption relative to the control was calculated. A percent inhibition vs. antioxidant concentration graph was plotted and the concentration of the antioxidant that suppresses the optical density of the ABTS radical by 50% (EC50) was determined. The Trolox Equivalent Antioxidant Capacity (TEAC) was also calculated.

Another data set has as its system MCF-7. Kind of data set: Colony formation assay. Format: cell-based. To be noted: Homo sapiens, MCF7, 72 h, read-out: Inhibitory concentration IC50, MCF-7. The protocol:
(§1) Cells were cultured in a 24-well plate with 1 mL of DMEM nutrient medium for 24 h. […] The experiment was conducted in triplicate and in two or three independent repetitions. Only solvent was added to the control wells instead of the test compounds. Incubation with the drugs continued for three days, after which the grown colonies were washed with cold PBS solution and fixed in a fixing buffer (10% acetic acid, 10% methanol in distilled water) for 15 min. The colonies were stained with a 0.4% solution of crystal violet in 20% ethanol for 30 min and then washed 3 times with dH2O and analyzed under a microscope. The colonies were then dissolved in 10% acetic acid for 40 min on a shaker, and the absorbance of the lysate was read at 590 nm. Results were expressed as a percentage relative to the control, and a dose–response curve was plotted to determine the IC50 value.

The subject of the next data set is HCT-116. Kind of data set: Colony formation assay. Format: cell-based. To be noted: Homo sapiens, HCT-116, 72 h, read-out: Inhibitory concentration IC50, HCT-116. Here is the method: as §1
The test system of the next data set is PC-3. Description: Colony formation assay. Format: cell-based. To be noted: Homo sapiens, PC-3, 72 h, read-out: Inhibitory concentration IC50, PC-3. The protocol: as §1
A short description of a further data set: MTS cytotoxicity assay. To be noted: human. An excerpt: The study utilized human cell lines including PC-3 (human prostate adenocarcinoma), HSF (primary human skin fibroblasts), MDA-MB-231 (estrogen-negative breast adenocarcinoma), MCF-7 (estrogen-positive breast adenocarcinoma), MSC (multipotent stem cells derived from adipose tissue), SF-539 (brain gliosarcoma), SNB-19 (glioblastoma), A-498 (kidney carcinoma), M-14 (human melanoma), NCI-H322-M (primary bronchioalveolar carcinoma), HCT-15 (colon adenocarcinoma), and HCT-116 (colorectal intestinal carcinoma). We also used immortalized C2C12 mouse myoblasts (ATCC—CRL-1772). Cancer cell lines were obtained from the ATCC collection and generously provided by the Fox Chase Cancer Center (Philadelphia, USA). Conditionally normal cells, including skin fibroblasts and multipotent stem cells, were isolated by our group from postoperative materials (skin and subcutaneous fat) obtained from a conditionally healthy donor. Reagents and consumables for cell culture work were purchased from PanEco (Russia).
The cytotoxicity of the compounds under study was assessed using MTS assay on cell cultures. Cells were seeded into 96-well plates at a concentration of 10,000–20,000 cells/mL. […] After 2 h of incubation, the resulting water-soluble formazan was measured using the TECAN Infinite M200 Pro microplate reader at wavelengths of 555/750 nm. […]
(In general: Tetrazolium assays rely on reduction of a dye to a coloured formazan, in cell work by metabolically active cells.)

A further data set has as its system MCF-7 cells. Kind of data set: Cell cycle analysis, Hoechst 33342 flow cytometry. It is filed as cell-based, human. To be noted: MCF-7, 72 h. The protocol: MCF-7 cells were seeded at a density of 15,000 cells/mL in a 6-well plate in 3 mL of complete medium. After 24 h, the medium was replaced with one containing the studied compounds and incubated for 72 h. After incubation, cells were stained with Hoechst 33342 (Roche, Basel, Switzerland) at a concentration of 6 μg/mL for 30 min in the CO2 incubator. The nutrient medium over cells containing the floating cells was collected into tubes, and then the remaining adherent cells were trypsinized and added to the tubes with the floating cells. After this, cells were centrifuged and washed with a DPBS buffer. The fluorescence intensity of cells was measured using the flow cytofluorimeter BD FACSCalibur™ (BD Biosciences, Franklin Lakes, NJ, USA). To identify single cells, direct scatter (FS) and side scatter (SS) measurements were used, and cell doublets were excluded from the analysis using pulse processing based on the area-to-pulse width ratio.
(In general: In flow cytometry, cells or beads pass a laser one at a time.)

Where [2] appears, read: colony formation assay, incubation three days.

Method for PC-3 cells: PC-3 and MCF-7 cells were seeded into 6-well plates at a concentration of 15,000 cells/mL. […] Cells were trypsinized and washed, then placed in 0.7% low melting point agarose and mounted on glass slides (200 000 cells/sample). Slides were treated with lysis solution (2.5 M NaCl, 0.1 M disodium EDTA, 1% Triton X-100, 10 mM Tris base, 10% DMSO, pH 10) for 1 h at 4 °C. Next, the samples were placed in an alkaline solution (12 g of NaOH brought to 1 L with water, disodium EDTA 0.2 M, pH >13) and incubated for 30 min at room temperature. Afterward, the slides were washed with electrophoresis 1X TBE buffer (10X TBE: 9.3 g disodium salt EDTA, 108 g Tris base, and 55 g boric acid per 1 L of water) twice and placed in the electrophoresis chamber. Electrophoresis was carried out under neutral conditions in 1X TBE buffer for 30 min at 31 V (at the rate of 1 V/cm). Afterward, the slides were washed in PBS (Ca free, Mg free) 2 times for 5 min, fixed in 96% ethanol for 5 min, and dried. Before analysis, 50 μL of SYBR Green solution (1μL stock + 10 mL TE buffer) was applied to the slides. Using an Observer Z1 fluorescent optical microscope (Carl Zeiss, Jena, Germany), photographs of cells were taken and analyzed in the ImageJ program (Plugin OpenComet).
“Tail moment” (TM) and “Olive moment” (OTM) were calculated using the following formula:(1) TM=(Fluor in tail/Fluor total )×tail lenght (2) OTM=(Tail mean−Head mean)×(Tail DNA %)/100.

For `COc1cccc2c1C(=O)c1c(O)c3c(c(O)c1C2=O)CC(O)(C(=O)CO)CC3OC1CC(NC(=O)c2cnc(C)c3c2COC(C)(C)O3)C(O)C(C)O1` (stereo not drawn) [DOX-1, N-(3-hydroxy-2-methyl-6-((3,5,12-trihydroxy-3-(2-hydroxyacetyl)-10-methoxy-6,11-dioxo-1,2,3,4,6,11-hexahydrotetracen-1-yl)oxy)tetrahydro-2H-pyran-4-yl)-2,2,8-trimethyl-4H-[1,3]dioxino[4,5-c]pyridine-5-carboxamide], the melting point is 165 to 167 °C (dec.). In the data set on PC-3 cells (PC-3, 3 µM (IC25)), the “Olive Moment” value turned out to be 2.48, the “Tail Area” value is on record as 1094, the “Tail DNA %” value came out at 6.7% and the “Tail Intensity” value is recorded as 34. For the same compound, in the data set with PC-3 cells (PC-3, 3 µM (IC25)), the “Tail Length” value came out at 10 and the “Tail Moment” value worked out at 1.07. For the same compound, in the data set on PC-3 cells (PC-3, 6.1 µM (IC50)), the “Olive Moment” value was 2.24, the “Tail Area” value worked out at 1196, the “Tail DNA %” value worked out at 6.7% and the “Tail Intensity” value is listed as 30. In addition, in the data set with PC-3 cells (PC-3, 6.1 µM (IC50)), the “Tail Length” value was 17 and the “Tail Moment” value came out at 1.36. In the data set on PC-3 cells (PC-3, 11.3 µM (IC70)), the “Olive Moment” value was determined as 3.79, the “Tail Area” value was 1403, the “Tail DNA %” value is reported as 11.4% and the “Tail Intensity” value was 37. Moreover, in the data set on PC-3 cells (PC-3, 11.3 µM (IC70)), the “Tail Length” value is given as 12 and the “Tail Moment” value is 1.87. The “DNA breaks in the Comet assay (in words)” value in the data set on PC-3 cells is on record as “do not cause DNA breaks”. Also, in data set [1], the EC50 was determined as 4.5 ± 0.5 µM and the “Trolox Equivalent Antioxidant Capacity (TEAC)” value is 3.49. In the data set on MCF-7, the IC50 came out at 870 ± 120 nM. Further, in the data set with HCT-116, the IC50 was 4420 ± 3020 nM. For the same compound, the IC50 with PC-3 came to 3200 ± 310 nM.

In “MTS cytotoxicity assay” (MSC multipotent stem cells derived from adipose tissue), `COc1cccc2c1C(=O)c1c(O)c3c(c(O)c1C2=O)C[C@@](O)(C(=O)CO)C[C@@H]3O[C@H]1C[C@H](N)[C@H](O)[C@H](C)O1` [DOX, Doxorubicin, reference compound] displayed an IC50 at 72 h of 1100 ± 650 nM. Moreover, in the data set with PC-3 cells (PC-3, 0.5 µM (IC25)), the “Olive Moment” value is 8.13, the “Tail Area” value is 2215, the “Tail DNA %” value is listed as 22.7% and the “Tail Intensity” value came out at 66. For the same compound, the “Tail Length” value with PC-3 cells (PC-3, 0.5 µM (IC25)) was determined as 51. For the same compound, in the data set with PC-3 cells (PC-3, 1.1 µM (IC50)), the “Olive Moment” value turned out to be 11.64, the “Tail Area” value is listed as 1902, the “Tail DNA %” value stood at 35.2% and the “Tail Intensity” value is 74. In addition, the “Tail Length” value in the data set on PC-3 cells (PC-3, 1.1 µM (IC50)) came to 51. For the same compound, the “DNA breaks in the Comet assay (in words)” value in the data set with PC-3 cells is “induces DNA breaks”. Further, in data set [1], the EC50 was found to be 6.7 ± 0.7 µM and the “Trolox Equivalent Antioxidant Capacity (TEAC)” value is 2.34. In addition, the “Effect on the cell cycle (in words)” value in the data set with MCF-7 cells was “cell-cycle arrest in the G2M phase”. Besides, the IC50 in the data set on MCF-7 (setting [2]) is 60 ± 3 nM. In addition, the IC50 in the data set on HCT-116 (setting [2]) turned out to be 620 ± 140 nM. In addition, the IC50 in the data set on PC-3 (setting [2]) was determined as 1170 ± 480 nM.

For the compound `COc1cccc2c1C(=O)c1c(O)c3c(c(O)c1C2=O)CC(O)(C(=O)CO)CC3OC1CC(NC(=O)/C=C/c2cnc(C)c3c2COC(C)(C)O3)C(O)C(C)O1` (stereo not drawn) [DOX-2, (E)-N-(3-hydroxy-2-methyl-6-((3,5,12-trihydroxy-3-(2-hydroxyacetyl)-10-methoxy-6,11-dioxo-1,2,3,4,6,11-hexahydrotetracen-1-yl)oxy)tetrahydro-2H-pyran-4-yl)-3-(2,2,8-trimethyl-4H-[1,3]dioxino[4,5-c]pyridin-5-yl)acrylamide], the melting point was 175 to 176 °C (dec.). The compound further displayed an IC50 at 72 h in “MTS cytotoxicity assay” greater than 200000 nM. Besides, in data set [1], the EC50 turned out to be 18.9 ± 6.8 µM and the “Trolox Equivalent Antioxidant Capacity (TEAC)” value is reported as 0.83. Besides, in the data set with MCF-7 cells, the “Effect on the cell cycle (in words)” value was “cell-cycle arrest in the G2M phase”. Also, the IC50 in the data set on MCF-7 turned out to be 1630 ± 40 nM. Moreover, the IC50 in the data set with HCT-116 was 910 ± 390 nM. For the same compound, the IC50 in the data set with PC-3 was 1660 ± 820 nM.

One may read the melting point as the temperature, or range, at which the solid turns liquid. Broadly, the EC50 is the concentration giving half of the maximal effect.
